Data from patent US20260224595A1, “COMPOUNDS FOR THE TREATMENT OF MYOTONIC DYSTROPHY” (ETH ZURICH, priority 2022, published 2026).

Legend:
[1] = test system: targetomes of let-7, miR-1, miR-9, miR-29, miR-30, miR-107 and miR-181; assay: RNA-Seq of miRNA targetomes in DM myoblasts and myotubes; assay type: cell-based, human
Description: (§1) As described in Example 3, total RNA was isolated from DM-patient and healthy cells, and cDNA libraries were prepared for three conditions (healthy volunteer (HV); DM; DM+Compound II) for DM1 and DM2 backgrounds. The expression levels of predicted targetomes of miRNAs let-7, miR-1, miR-9, miR-29, miR-30, miR-107 and miR-181 were then compared, using miR-122 as well as more than 2,000 transcripts that are not predicted targets of any miRNA as negative controls. Three pair-wise comparisons were performed to measure: i) how a targetome varies between healthy and diseased cells (HV versus DM), ii) how a targetome responds to treatment with the inventive compounds (DM versus DM+Compound II) and, iii) how a Compound II-treated DM-targetome compares to that of a healthy signature. For each pair-wise comparison, the third dataset was used as a reference and the fold changes were calculated for each target transcript (e.g. DM1 vs. DM1+Compound II, with fold changes calculated relative to HV).
Primary myoblasts or myotubes derived from DM1 or DM2 patient samples and non-DM healthy control individuals were cultured for 90% confluence and then treated with 120 μM Compound II for 72 h. Myoblasts were harvested by trypsinization, and separately myotubes were isolated by a minimal trypsin treatment followed by gentle centrifugation to sediments to separate them from the remaining mono-nucleated cells. Cell pellets were washed with PBS and RNA isolation was performed with Trizol® by using the Dircet-zol™ RNA MiniPrep Plus Kit (ZYMO Research, Freiburg, Germany). Library preparation was performed using the TruSeq Stranded mRNA Kit (Illumina, San Diego, CA, USA) with the TruSeq RNA Single Index Set A (Illumina) according to the recommended procedure. Quality and size distribution of the generated libraries was validated using an Agilent 2100 bioanalyzer with high-sensitivity RNA chip (Agilent) and RNA yield was measured using the Qubit […] HS Assay Kit followed by pooling of the libraries in batches of 12 and sequencing of […] pooled library on an Nextseq 500/High Output Flow Cell Cartridge using a paired end, 2×76 reads, single index protocol.
RNA-Seq reads were mapped to the human genome (build GRCh38) using STAR (Dobin et al., (2013). STAR: ultrafast universal RNA-seq aligner. Bioinformatics 29, 15-21) with gene annotations from gencode (www.gencodegenes.org; version 40). Reads mapping uniquely to exons were counted for each gene using htseq-count (Anders et al., (2015). HTSeq—a Python framework to work with high-throughput sequencing data. Bioinformatics 31, 166-169) with the parameter -s reverse and -m intersection_strict. Expression levels were quantified as TPM (transcripts per million), by dividing read counts by the total exon length for each gene, and then normalising by the sum of all values in each sample and multiplying by one million. Fold changes were calculated between the average expression levels in three conditions: DMSO-treated healthy volunteer samples (HV), DMSO-treated DM patient samples (DM), and Compound II-treated DM patient samples (DM+Compound II). Genes with an average TPM>1 were considered in each of these three conditions. For myoblasts, three samples were included for all conditions. For myotubes, three samples were included for the HV, DM1 and DM2 conditions, but two Compound II-treated samples were excluded (one DM1 and one DM2) due to a very low read count (<500000 exonic reads), resulting in […] and two DM2+Compound II myotube samples being included in the analysis. Cumulative density functions of expression changes of miRNA target genes were plotted using custom python scripts.

[2] = test system: miR-122 targets; assay: RNA-Seq of miR-122 targetome (negative control); assay type: cell-based, human
Description: as §1
Primary myoblasts or myotubes derived from DM1 or DM2 patient samples and non-DM healthy control individuals were cultured for 90% confluence and then treated with 120 μM Compound II for 72 h. […] Quality and size distribution of the generated libraries was validated using an Agilent 2100 bioanalyzer with high-sensitivity RNA chip (Agilent) and RNA yield was measured using the Qubit […] HS Assay Kit followed by pooling of the libraries in batches of 12 and sequencing of […] pooled library on an Nextseq 500/High Output Flow Cell Cartridge using a paired end, 2×76 reads, single index protocol.
RNA-Seq reads were mapped to the human genome (build GRCh38) using STAR (Dobin et al., (2013). STAR: ultrafast universal RNA-seq aligner. Bioinformatics 29, 15-21) with gene annotations from gencode (www.gencodegenes.org; version 40). Reads mapping uniquely to exons were counted for each gene using htseq-count (Anders et al., (2015). HTSeq—a Python framework to work with high-throughput sequencing data. Bioinformatics 31, 166-169) with the parameter -s reverse and -m intersection_strict. […]

CC(=O)N(C)c1cccc(-c2ccc3nnc(C)n3n2)c1 [Compound II]
shift of the targetomes of the miRNAs tested versus healthy volunteers ([1]; DM1 and DM2 cells, FIGS. 5B, 5D, 6B and 6D): levels comparable to those of healthy volunteers | median suppression of the targetomes of let-7 and miRs -9, -1, -29, -30, -107, -181 ([1]; DM1 myoblasts, 120 μM, 72 h, RNA-Seq): 10-12% | CDF curves of DM1+Compound II versus HV targetome signature for miR-1, miR-9, miR-29, miR-30 and miR-107 ([1]; DM1 myoblasts, FIG. 5B): indistinguishable overlay | median suppression of the seven miRNA targetomes ([1]; DM1 myotubes, 120 μM, 72 h, RNA-Seq): 12-15% | median suppression of the seven targetomes ([1]; DM2 myoblasts, 120 μM, 72 h, RNA-Seq): 22-25% | targetome shift versus HV signature ([1]; DM2 myoblasts, FIG. 5D): overshoot | median suppression of the seven miRNA targetomes ([1]; DM2 myotubes, 120 μM, 72 h, RNA-Seq): 10-12% | change of miR-122 targets ([2]; DM1 and DM2 myotubes, 120 μM, 72 h): not significantly changed | change of miR-122 targets ([2]; DM1 myoblasts, 120 μM, 72 h): not significantly changed | change of miR-122 targets ([2]; DM2 myoblasts, compared to targetomes of other miRNAs): weaker change
